In publication PMC12285253, “Insights into genetic determinants of volatile fatty acid catabolism in Cupriavidus necator H16” (Applied and Environmental Microbiology, 2025):

Tests used:
H16_B1148 = target: T1, H16_B1148 (Cupriavidus necator, UniProt Q0K235); assay: coupled NADH assay of ATP consumption (myokinase, pyruvate kinase, lactate dehydrogenase); type: biochemical; settings: 2 mM substrate, 1 mM CoA, 2.1 mM ATP, 5 mM MgCl2, pH 7.5
T1 construct: N-terminal hexahistidine tag, E. coli BL21(DE3) delta-patZ, Ni-NTA and SEC
T1 sequence (Q0K235 1-544): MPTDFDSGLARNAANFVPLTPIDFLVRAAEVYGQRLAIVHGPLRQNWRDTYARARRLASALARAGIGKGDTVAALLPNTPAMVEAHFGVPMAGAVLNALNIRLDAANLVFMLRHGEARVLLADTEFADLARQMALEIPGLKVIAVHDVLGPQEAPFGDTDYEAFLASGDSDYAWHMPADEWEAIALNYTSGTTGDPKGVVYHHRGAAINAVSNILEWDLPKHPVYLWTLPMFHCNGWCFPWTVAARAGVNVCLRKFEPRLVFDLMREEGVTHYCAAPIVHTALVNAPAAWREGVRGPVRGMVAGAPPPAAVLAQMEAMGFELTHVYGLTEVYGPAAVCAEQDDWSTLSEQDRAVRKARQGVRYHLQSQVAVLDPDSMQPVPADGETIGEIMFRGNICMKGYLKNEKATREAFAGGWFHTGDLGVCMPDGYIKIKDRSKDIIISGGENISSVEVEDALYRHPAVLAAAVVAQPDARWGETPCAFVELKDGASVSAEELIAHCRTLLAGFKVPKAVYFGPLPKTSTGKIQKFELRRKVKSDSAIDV

H16_B1335 = target: T2, H16_B1335 (Cupriavidus necator, UniProt Q0K1J9); assay: as above; type: biochemical; settings: 2 mM substrate, 1 mM CoA, 2.1 mM ATP, 5 mM MgCl2, pH 7.5
T2 sequence (Q0K1J9 1-562): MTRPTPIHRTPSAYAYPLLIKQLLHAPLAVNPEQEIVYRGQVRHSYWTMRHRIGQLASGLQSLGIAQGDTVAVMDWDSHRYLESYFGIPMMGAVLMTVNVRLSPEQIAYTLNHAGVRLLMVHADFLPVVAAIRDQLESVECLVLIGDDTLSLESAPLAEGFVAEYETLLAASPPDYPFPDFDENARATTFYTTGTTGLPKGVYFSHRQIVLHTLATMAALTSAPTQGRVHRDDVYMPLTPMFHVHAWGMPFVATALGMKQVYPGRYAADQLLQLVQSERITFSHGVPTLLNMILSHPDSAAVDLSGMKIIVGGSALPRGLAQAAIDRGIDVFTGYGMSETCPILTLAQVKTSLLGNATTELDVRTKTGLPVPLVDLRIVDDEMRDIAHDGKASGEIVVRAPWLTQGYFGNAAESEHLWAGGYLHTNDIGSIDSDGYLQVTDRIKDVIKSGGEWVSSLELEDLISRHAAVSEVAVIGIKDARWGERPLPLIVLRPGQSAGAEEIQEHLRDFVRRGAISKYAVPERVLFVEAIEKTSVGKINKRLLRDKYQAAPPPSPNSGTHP

| Compound | relative activity (H16_B1148) | relative activity (H16_B1335) |
| --- | --- | --- |
| CCC(=O)O [C3, propionate] | The relative activity of H16_B1148 skewed toward shorter chain lengths | – |
| CCCCC(=O)O [C5, valerate] | – | our in vitro assay results demonstrating that H16_B1335 is also active on valerate |
| CCCCCC(=O)O [C6, hexanoate] | – | the relative activity of H16_B1335 skewed toward longer chain lengths |
